Source: ChEMBL document CHEMBL4814071, “Synthesis and antibacterial study of cell-penetrating peptide conjugated trifluoroacetyl and thioacetyl lysine modified peptides” (Eur J Med Chem, 2021)
Where a name gives a salt, the structure may show the parent alone. The source made the active and inactive calls. No cut-off for these calls is given here. Where a SMILES comes first, the peptide text is derived from it. The star is where a group is joined. Tfa = O=C(C(F)(F)F)*

Columns and labels:
[1] = Induction of yeast killing at 50 uM incubated for 72 hrs in presence of Ura3 and absence of FOA by absorbance based analysis; conditions: saccharomyces cerevisiae
[2] = molecular target: NAD-dependent histone deacetylase SIR2 (Saccharomyces cerevisiae S288c) (UniProt P06700); assay: Inhibition of yeast sirtuin2-mediated Ura3 transcriptional silencing at telomeric locus assessed as yeast killing at 50 uM incubated for 72 hrs in presence of FOA by absorbance based analysis
Chain of NAD-dependent histone deacetylase SIR2 (Saccharomyces cerevisiae S288c) (P06700 whole entry): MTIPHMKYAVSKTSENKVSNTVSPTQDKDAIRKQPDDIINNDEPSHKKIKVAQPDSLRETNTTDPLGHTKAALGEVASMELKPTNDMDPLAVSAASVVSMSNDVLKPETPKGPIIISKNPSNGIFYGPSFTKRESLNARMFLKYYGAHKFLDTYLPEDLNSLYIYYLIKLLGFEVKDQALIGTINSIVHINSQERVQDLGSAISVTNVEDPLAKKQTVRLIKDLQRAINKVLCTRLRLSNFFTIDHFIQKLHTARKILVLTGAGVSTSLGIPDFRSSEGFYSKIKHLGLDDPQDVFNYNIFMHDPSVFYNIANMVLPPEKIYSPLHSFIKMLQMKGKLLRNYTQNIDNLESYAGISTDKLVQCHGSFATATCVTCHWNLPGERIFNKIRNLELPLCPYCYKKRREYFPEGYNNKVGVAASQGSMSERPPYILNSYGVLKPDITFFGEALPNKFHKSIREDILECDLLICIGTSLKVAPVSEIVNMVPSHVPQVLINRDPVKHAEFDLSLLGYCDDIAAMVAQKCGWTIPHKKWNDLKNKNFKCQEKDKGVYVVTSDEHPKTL

[3] = Inhibition of transcriptional machinery using Puc19-lacCONS plasmid DNA and Escherichia coli RNA polymerase-sigma70 holoenzyme at 40 uM incubated for 35 mins followed by NTP addition for 30 mins by spectrofluorometer analysis; type: functional; conditions: time 65.0 min
[4] = tested on: Pseudomonas aeruginosa; assay: Potentiation of polymyxin B-induced antibacterial activity against Pseudomonas aeruginosa assessed as polymyxin B MIC incubated for 24 hrs by microplate reader method; type: functional
[5] = tested on: Staphylococcus aureus; assay: Antibacterial activity against Staphylococcus aureus assessed as reduction in microbial growth after 24 hrs in presence of streptomycin by microplate reader method; type: functional
[6] = tested on: Pseudomonas aeruginosa; assay: Antibacterial activity against Pseudomonas aeruginosa assessed as reduction in microbial growth after 24 hrs in presence of polymyxin B by microplate reader method; type: functional
[7] = tested on: Staphylococcus aureus; assay: Potentiation of streptomycin-induced antibacterial activity against Staphylococcus aureus assessed as fold change in streptomycin MIC incubated for 24 hrs by microplate reader method; type: functional
[8] = tested on: Cell membrane; assay: Disruption of membrane integrity in Staphylococcus aureus at 2 times MIC measured after 20 mins by SEM analysis
[9] = tested on: Pseudomonas aeruginosa; assay: Synergistic antibacterial activity against Pseudomonas aeruginosa assessed as fractional inhibitory concentration index incubated for 24 hrs in presence of Polymyxin B; type: functional
[10] = tested on: Escherichia coli; assay: Antibiofilm activity against Escherichia coli assessed as biofilm eradication incubated for 24 hrs by crystal violet staining assay; type: functional
[11] = tested on: Lipid bilayer; assay: Binding affinity to mammalian membrane mimic DOPC/40% cholesterol assessed as calcein leakage at 20 uM by fluorescence based assay; type: ADME
[12] = tested on: Escherichia coli; assay: Antibiofilm activity against Escherichia coli assessed as biofilm eradication at 2XMBEC incubated for 12 hrs by SYTO9/PI staining based microscopic analysis; type: functional, organism-based
[13] = tested on: Lipid bilayer; assay: Binding affinity to bacterial inner membrane mimic DOPE/DOPG (3:1) large unilamellar vesicles assessed as calcein leakage at 20 uM by fluorescence based assay
[14] = tested on: Staphylococcus aureus; assay: Synergistic antibacterial activity against Staphylococcus aureus assessed as fractional inhibitory concentration index incubated for 24 hrs in presence of streptomycin; type: functional
[15] = tested on: Staphylococcus aureus; assay: Antibacterial activity against Staphylococcus aureus assessed as reduction in microbial growth after 24 hrs by microplate reader method; type: functional
[16] = tested on: Staphylococcus aureus; assay: Antibiofilm activity against Staphylococcus aureus assessed as biofilm eradication incubated for 24 hrs by crystal violet staining assay; type: functional
[17] = tested on: Escherichia coli; assay: Antibiofilm activity against Escherichia coli assessed as as inhibition of biofilm formation incubated for 48 hrs by crystal violet staining assay; type: functional
[18] = tested on: Escherichia coli; assay: Synergistic antibacterial activity against Escherichia coli assessed as fractional inhibitory concentration index incubated for 24 hrs in presence of Polymyxin B; type: functional
[19] = tested on: Staphylococcus aureus; assay: Antibiofilm activity against Staphylococcus aureus assessed as biofilm eradication at 2XMBEC incubated for 12 hrs by SYTO9/PI staining based microscopic analysis; type: functional, organism-based
[20] = tested on: Staphylococcus aureus; assay: Potentiation of streptomycin-induced antibacterial activity against Staphylococcus aureus assessed as streptomycin MIC incubated for 24 hrs by microplate reader method; type: functional
[21] = Hemolytic activity against mouse RBC at 1000 uM measured after 1 hr by microplate reader analysis; type: cell-based, Erythrocyte; conditions: mouse red blood cells (erythrocytes), read-out: Activity
[22] = tested on: Cell membrane; assay: Disruption of membrane integrity in Escherichia coli at 2 times MIC measured after 20 mins by SEM analysis
[23] = tested on: Lipid bilayer; assay: Binding affinity to bacterial inner membrane mimic POPE/POPG (3:1) LUVs assessed as increase in intensity by one-dimensional 19F NMR based analysis
[24] = tested on: Escherichia coli; assay: Antibacterial activity against Escherichia coli assessed as reduction in microbial growth after 24 hrs by microplate reader method; type: functional
[25] = tested on: Escherichia coli; assay: Potentiation of polymyxin B-induced antibacterial activity against Escherichia coli assessed as polymyxin B MIC incubated for 24 hrs by microplate reader method; type: functional
[26] = tested on: BE(2)-C; assay: Cytotoxicity against human BE(2)-C cells assessed as reduction in cell viability incubated for 48 hrs by MTT assay; type: cell-based
[27] = tested on: Escherichia coli; assay: Antibacterial activity against Escherichia coli assessed as reduction in microbial growth after 24 hrs in presence of polymyxin B by microplate reader method; type: functional
[28] = tested on: HeLa; assay: Cytotoxicity against human HeLa cells assessed as reduction in cell viability incubated for 48 hrs by MTT assay; type: cell-based
[29] = tested on: Pseudomonas aeruginosa; assay: Antibacterial activity against Pseudomonas aeruginosa assessed as reduction in microbial growth after 24 hrs by microplate reader method; type: functional
[30] = tested on: Staphylococcus aureus; assay: Antibiofilm activity against Staphylococcus aureus assessed as inhibition of biofilm formation incubated for 48 hrs by crystal violet staining assay; type: functional

MIC [4]: 0.1 µM | MIC [5]: 0.31 µM | MIC [6]: 25 µM | Activity [8]: inactive | Activity [11]: < 20% | Activity [13]: 70% | MIC [15]: 1.5 µM | MIC [20]: 0.38 µM | Activity [22]: inactive | Activity [23]: Active | MIC [24]: 125 µM | MIC [25]: 0.05 µM | MIC [27]: 15.6 µM | MIC [29]: > 250 µM
Compound: CC(=O)N[C@@H](CCCCN)C(=O)NCC(=O)N[C@@H](CC(C)C)C(=O)N[C@@H](CCCNC(=N)N)C(=O)N[C@@H](CCCCNC(=O)C(F)(F)F)C(=O)N[C@@H](Cc1ccccc1)C(=O)NCC(=O)N[C@@H](C)C(=O)N[C@@H](CCCCN)C(=O)N[C@@H](CCCNC(=N)N)C(=O)N[C@@H](Cc1cnc[nH]1)C(=O)N[C@@H](CCCNC(=N)N)C(=O)N[C@@H](CS)C(N)=O (Ac-KGLRK(Tfa)FGAKRHRC-NH2)
Activity [1]: Toxic | inhibition [2]: Active | inhibition [3]: Active | fold change (FC) [7]: 6 | fractional inhibitory concentration index (FICI) [9]: 0.36 | MBEC [10]: inactive | Activity [12]: Active | fractional inhibitory concentration index (FICI) [14]: 0.19 | MBEC [16]: 12.5 µM | MBIC [17]: inactive | fractional inhibitory concentration index (FICI) [18]: 0.36 | Activity [19]: Active | hemolysis at 1 h, 1000 µM [21]: < 5% | IC50 [26]: 78 µM | IC50 [28]: 94.6 µM | MBIC [30]: 6.3 µM
